# Literature values in PubChem BioAssay AID1259409 (Chemical Carcinogenesis Research Information System (CCRIS), 2018).
# Several values for one entry are separate records, joined by “and”; a condition that tells them apart may be missing. Equal entries are not always repeated.
# Test system: rodent chemically induced tumor inhibition, incidence and multiplicity
# Assay: CCRIS tumor inhibitor studies
# Source text: The CCRIS database contains chemical records with carcinogenicity, mutagenicity, tumor promotion, and tumor inhibition test results. It was developed by the National Cancer Institute (NCI). Data are derived from studies cited in primary journals, current awareness tools, NCI reports, and other sources. Test results have been reviewed by experts in carcinogenesis and mutagenesis.
# CCRIS provides historical information from the years 1985 - 2011. It is no longer updated.
# This is an archive assay for CCRIS tumor inhibitor studies.
compound,measurement,setting,value
CN=C(NC#N)NCCSCc1nc[nH]c1C,"tumour outcome (control, treated, inhibition, significance)","Carcinogen: 7,12-DIMETHYLBENZ[A]ANTHRACENE, 57-97-6, Dose [Inhibitor]: 0, 10 MG A WK IN DRINKING WATER BEGINNING 1 WK POST CARCINOGEN DOSE AND CONTINUING FOR DURATION OF STUDY (STUDY DURATION, Route [Inhibitor]: ORAL, Species: MOUSE, Strain/Sex: SENCAR/MALE, Target Tissue: Type of Lesion: SKIN: PAPILLOMA, Dose [Carcinogen]: 100 NMOL IN 200 µL ACETONE ONCE, Promoter: 12-O-TETRADECANOYLPHORBOL-13-ACETATE, 16561-29-8","95%, 100%, -5%, not calculated"
same,"tumour outcome (control, treated, inhibition, significance)","Carcinogen: N-METHYL-N'-NITRO-N-NITROSOGUANIDINE, 70-25-7, Dose [Inhibitor]: 10 MG/KG BW IN DEPOT FORM 1/2 D BEGINNING 1 WK POST LAST CARCINOGEN DOSE FOR DURATION OF STUDY (STUDY DURATION: 52 WK), Route [Inhibitor]: SUBCUTANEOUS, Species: RAT, Strain/Sex: WISTAR/MALE, Target Tissue: Type of Lesion: STOMACH: ADENOCARCINOMA, Dose [Carcinogen]: 50 UG/ML IN DRINKING WATER FOR 25 WK, Promoter: NONE USED","12/19 (63%), 13/19 (68%), -8%, not calculated"
same,"tumour outcome (control, treated, inhibition, significance)","Carcinogen: N-METHYL-N'-NITRO-N-NITROSOGUANIDINE, 70-25-7, Dose [Inhibitor]: 20 MG/KG BW IN DEPOT FORM 1/2 D BEGINNING 1 WK POST LAST CARCINOGEN DOSE FOR DURATION OF STUDY (STUDY DURATION: 52 WK), Route [Inhibitor]: SUBCUTANEOUS, Species: RAT, Strain/Sex: WISTAR/MALE, Target Tissue: Type of Lesion: STOMACH: ADENOCARCINOMA, Dose [Carcinogen]: 50 UG/ML IN DRINKING WATER FOR 25 WK, Promoter: NONE USED","12/19 (63%), 11/19 (58%), 8%, not calculated"
C[C@H]1O[C@@H](O[C@H]2[C@@H](O)C[C@H](O[C@H]3[C@@H](O)C[C@H](O[C@H]4CC[C@@]5(C)[C@H](CC[C@@H]6[C@@H]5CC[C@]5(C)[C@@H](C7=CC(=O)OC7)CC[C@]65O)C4)O[C@@H]3C)O[C@@H]2C)C[C@H](O)[C@@H]1O,"tumour outcome (control, treated, inhibition, significance)","Carcinogen: 4-NITROQUINOLINE-N-OXIDE, 56-57-5, Dose [Inhibitor]: 0, 0.25 MG/100 ML IN DRINKING WATER FOR 20 WK BEGINNING 5 WK POST CARCINOGEN DOSE (STUDY DURATION: 25 WK), Route [Inhibitor]: ORAL, Species: MOUSE, Strain/Sex: ICR/FEMALE, Target Tissue: Type of Lesion: LUNG: TUMOR, Dose [Carcinogen]: 0.3 MG ONCE, Promoter: GLYCEROL, 56-81-5","100%, 53%, 47%, not calculated"
same,"tumour outcome (control, treated, inhibition, significance)","Carcinogen: 7,12-DIMETHYLBENZ[A]ANTHRACENE, 57-97-6, Dose [Inhibitor]: 0, 85 NMOL IN ACETONE 2/WK 1 HR PRIOR TO EACH PROMOTER DOSE FOR 20 WK (STUDY DURATION: 21 WK), Route [Inhibitor]: DERMAL, Species: MOUSE, Strain/Sex: ICR/FEMALE, Target Tissue: Type of Lesion: SKIN: PAPILLOMA, Dose [Carcinogen]: 100 UG IN ACETONE ONCE, Promoter: 12-O-TETRADECANOYLPHORBOL-13-ACETATE, 16561-29-8","100%, 80%, 20%, not calculated"
C=C(C)C1C=CC(C)(O)CC1 (stereo not given),"tumour outcome (control, treated, inhibition, significance)","Carcinogen: BENZO[A]PYRENE, 50-32-8, Dose [Inhibitor]: 0, 20 MG 3/WK FOR 4 WK ON DAYS OTHER THAN THE CARCINOGEN TREATMENT (STUDY DURATION: 20 WK), Route [Inhibitor]: GAVAGE, Species: MOUSE, Strain/Sex: STRAIN-A/FEMALE, Target Tissue: Type of Lesion: FORESTOMACH: TUMOR, Dose [Carcinogen]: 1 MG IN 0.2 ML COTTONSEED OIL 2/WK FOR 4 WK, Promoter: NONE USED","13/19 (68%), 7/14 (50%), 26%, not significant"
O=C(c1ccc(OCCN2CCCCC2)cc1)c1c(-c2ccc(O)cc2)sc2cc(O)ccc12,"tumour outcome (control, treated, inhibition, significance)","Carcinogen: 7,12-DIMETHYLBENZ[A]ANTHRACENE (DMBA) [57-97-6], Dose [Inhibitor]: 50 MG/KG/D FOR 37 WK (STUDY DURATION: 37 WK), Route [Inhibitor]: ORAL GAVAGE, Species: MOUSE, Strain/Sex: SENCAR/FEMALE, Target Tissue: Type of Lesion: MAMMARY: CARCINOMA, Dose [Carcinogen]: 20 UG/D FOR 6 WKS (STUDY DURATION: 37 WKS), Promoter: MEDROXYPROGESTERONE ACETATE (71-58-9)","10/21 (48%); 5/17 (29%), 40%, p=0.20"
same,"tumour outcome (control, treated, inhibition, significance)","Carcinogen: ESTRADIOL, 50-28-2, Dose [Inhibitor]: 0, 25 MG PELLET 2 PELLETS IMPLANTED EVERY 3 MO BEGINNING 15 D PRIOR TO CARCINOGEN DOSE (STUDY DURATION: 8 MO), Route [Inhibitor]: SUBCUTANEOUS IMPLANT, Species: HAMSTER, Strain/Sex: SYRIAN/MALE, Target Tissue: Type of Lesion: KIDNEY: TUMOR, Dose [Carcinogen]: 25 MG PELLET IMPLANTED EVERY 3 MO, Promoter: NONE USED","5/5 (100%), 3/4 (75%), 25%, not significant"
same,"tumour outcome (control, treated, inhibition, significance)","Carcinogen: N-METHYL-N-NITROSOUREA, 684-93-5, Dose [Inhibitor]: 0, 5 MG/KG BW/D 2/WK TO DORSAL AREA STARTING 10 D BEFORE CARCINOGEN TREATMENT FOR THE DURATION OF THE STUDY (STUDY DURAT, Route [Inhibitor]: SUBCUTANEOUSLY, Species: RAT, Strain/Sex: SPRAGUE-DAWLEY/FEMALE, Target Tissue: Type of Lesion: MAMMARY GLAND: TUMOR, Dose [Carcinogen]: 50 MG/KG BW 2/WK FOR 1 WK BW 43-54 POSTNATAL DAYS","80%, 26%, 67%, p<0.001"
same,"tumour outcome (control, treated, inhibition, significance)","Carcinogen: N-METHYL-N-NITROSOUREA, 684-93-5, Dose [Inhibitor]: 0, 20 MG/KG OF DIET FOR DURATION OF STUDY BEGINNING 1 WK POST CARCINOGEN DOSE (STUDY DURATION: 5 MO), Route [Inhibitor]: ORAL, Species: RAT, Strain/Sex: SPRAGUE-DAWLEY/FEMALE, Target Tissue: Type of Lesion: MAMMARY GLAND: TUMOR, Dose [Carcinogen]: 50 MG/KG BW ONCE, Promoter: NONE USED","23/24 (96%), 10/12 (83%), 14%, p=0.26 and 29/30 (97%), 14/30 (47%), 52%, p=0.0001"
same,"tumour outcome (control, treated, inhibition, significance)","Carcinogen: N-METHYL-N-NITROSOUREA, 684-93-5, Dose [Inhibitor]: 0, 60 MG/KG OF DIET FOR DURATION OF STUDY BEGINNING 1 WK POST CARCINOGEN DOSE (STUDY DURATION: 5 MO), Route [Inhibitor]: ORAL, Species: RAT, Strain/Sex: SPRAGUE-DAWLEY/FEMALE, Target Tissue: Type of Lesion: MAMMARY GLAND: TUMOR, Dose [Carcinogen]: 50 MG/KG BW ONCE, Promoter: NONE USED","23/24 (96%), 8/12 (67%), 30%, p=0.03 and 29/30 (97%), 15/30 (50%), 48%, p=0.0002"
NCC(CC(=O)O)c1ccc(Cl)cc1 (stereo not given),"tumour outcome (control, treated, inhibition, significance)","Carcinogen: N-METHYL-N'-NITRO-N-NITROSOGUANIDINE, 70-25-7, Dose [Inhibitor]: 0, 4 MG/KG IN NACL INJECTED 1/2 D FOR DURATION OF STUDY BEGINNING 1 WK POST CARCINOGEN DOSE (STUDY DURATION: 52 WK), Route [Inhibitor]: INTRAPERITONEAL, Species: RAT, Strain/Sex: WISTAR/MALE, Target Tissue: Type of Lesion: STOMACH: ADENOCARCINOMA, Dose [Carcinogen]: 50 UG/ML IN DRINKING WATER FOR 25 WK, Promoter: NONE USED","13/19 (68%), 5/20 (25%), 63%, not calculated"
same,"tumour outcome (control, treated, inhibition, significance)","Carcinogen: N-METHYL-N'-NITRO-N-NITROSOGUANIDINE, 70-25-7, Dose [Inhibitor]: 0, 8 MG/KG BW 1/2 D FOR 25 WK BEGINNING POST CARCINOGEN TREATMENT (STUDY DURATION: 52 WK), Route [Inhibitor]: SUBCUTANEOUS, Species: RAT, Strain/Sex: WISTAR/MALE, Target Tissue: Type of Lesion: STOMACH: TUMOR, Dose [Carcinogen]: 50 UG/ML IN DRINKING WATER FOR 25 WK, Promoter: NONE USED","19/20 (95%), 10/20 (50%), 47%, p<0.001"
same,"tumour outcome (control, treated, inhibition, significance)","Carcinogen: N-METHYL-N'-NITRO-N-NITROSOGUANIDINE, 70-25-7, Dose [Inhibitor]: 0, 8 MG/KG IN NACL INJECTED 1/2 D FOR DURATION OF STUDY BEGINNING 1 WK POST CARCINOGEN DOSE (STUDY DURATION: 52 WK), Route [Inhibitor]: INTRAPERITONEAL, Species: RAT, Strain/Sex: WISTAR/MALE, Target Tissue: Type of Lesion: STOMACH: ADENOCARCINOMA, Dose [Carcinogen]: 50 UG/ML IN DRINKING WATER FOR 25 WK, Promoter: NONE USED","13/19 (68%), 5/18 (28%), 59%, not calculated"
same,"tumour outcome (control, treated, inhibition, significance)","Carcinogen: N-METHYL-N'-NITRO-N-NITROSOGUANIDINE, 70-25-7, Dose [Inhibitor]: 0, 8 MG/KG/BW SUSPENSION IN OLIVE OIL 1/2 D BEGINNING POST CARCINOGEN TREATMENT AND CONTINUING FOR DURATION OF STUDY (ST, Route [Inhibitor]: SUBCUTANEOUS, Species: RAT, Strain/Sex: WISTAR/MALE, Target Tissue: Type of Lesion: STOMACH: ADENOCARCINOMA, Dose [Carcinogen]: 50 UG/ML IN DRINKING WATER FOR 25 WK, Promoter: NONE USED","16/20 (80%), 8/20 (40%), 50%, p<0.05"
